Results taken from patent US9493455B2, “Azaindole derivatives as inhibitors of protein kinases” (ORIBASE PHARMA, priority 2012, dated 2016).
pEC50: −log10 of the molar value.

Experiments:
A549 = assay: In vitro cell proliferation assay (MTT); format: cell-based; settings: Homo sapiens, A549, 72 h
Method in brief: (§1)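 For these tumour lines, 5×10^3 cells were plated per well. Compound exposure lasted 72 hr across concentrations of 10 nM to 3 μM, with duplicate wells per concentration. Viable cell proliferation was determined by MTT assay.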

BaF3 E255K + M351T = assay: In vitro cell proliferation assay (MTT); format: cell-based; settings: Mus musculus, BaF3, 72 h
Method in brief: as §1

BaF3 G250A = assay: In vitro cell proliferation assay (MTT); format: cell-based; settings: Mus musculus, BaF3, 72 h
Method in brief: as §1

BaF3 G250E = assay: In vitro cell proliferation assay (MTT); format: cell-based; settings: Mus musculus, BaF3, 72 h
Method in brief: as §1

BaF3 T315I = assay: In vitro cell proliferation assay (MTT); format: cell-based; settings: Mus musculus, BaF3, 72 h
Method in brief: as §1

BaF3 WT = assay: In vitro cell proliferation assay (MTT); format: cell-based; settings: Mus musculus, BaF3, 72 h
Method in brief: as §1

BxPC-3 = assay: In vitro cell proliferation assay (MTT); format: cell-based; settings: Homo sapiens, BXPC-3, 72 h
Method in brief: as §1

Caki-2 = assay: In vitro cell proliferation assay (MTT); format: cell-based; settings: Homo sapiens, CAKI-2, 72 h
Method in brief: as §1

H1975 = assay: In vitro cell proliferation assay (MTT); format: cell-based; settings: Homo sapiens, NCI-H1975, 72 h
Method in brief: as §1

HRMEC = assay: In vitro cell proliferation assay (MTT); format: cell-based; settings: 72 h
Method in brief: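 Cells were seeded at 5×10^3 per well and exposed in duplicate to escalating compound concentrations from 10 nM to 3 μM for 72 hr. Proliferation was then measured by MTT reduction.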

HT29 = assay: In vitro cell proliferation assay (MTT); format: cell-based; settings: Homo sapiens, HT-29, 72 h
Method in brief: as §1

HUVEC = assay: In vitro cell proliferation assay (MTT); format: cell-based; settings: Homo sapiens, 72 h
Procedure: Cancer cell lines (5×10^3 cells per well) or HUVEC (1×10^4 cells per well) or HRMEC (1×10^4 cells per well) were distributed in 96-well plates and incubating in duplicate with escalating concentrations (10 nM to 3 μM) of compounds for 72 hr. Cell proliferation was measured using MTT (3 [4,5-dimethylthiazol-2-yl]-2,5-diphenyltetrazolium bromide).

HeLa = assay: In vitro cell proliferation assay (MTT); format: cell-based; settings: Homo sapiens, 72 h
Method in brief: as §1

HepG2 = assay: In vitro cell proliferation assay (MTT); format: cell-based; settings: Homo sapiens, HepG2, 72 h
Method in brief: as §1

HuCCT1 = assay: In vitro cell proliferation assay (MTT); format: cell-based; settings: Homo sapiens, HuCCT-1, 72 h
Method in brief: as §1

HuH6 Clone 5 = assay: In vitro cell proliferation assay (MTT); format: cell-based; settings: HUH-6-clone5, 72 h
Method in brief: as §1

HuH7 = assay: In vitro cell proliferation assay (MTT); format: cell-based; settings: Homo sapiens, Huh-7, 72 h
Method in brief: as §1

MDA-MB-231 = assay: In vitro cell proliferation assay (MTT); format: cell-based; settings: Homo sapiens, MDA-MB-231, 72 h
Method in brief: as §1

PC-3 = assay: In vitro cell proliferation assay (MTT); format: cell-based; settings: Homo sapiens, PC-3, 72 h
Method in brief: as §1

Ba/F3 T315I cells = assay: Xenograft mouse model, imatinib-resistant leukemia (CML); format: in vivo, mice
Procedure: (§2) Several xenograft mouse models were prepared: • 1) imatinib-resistant leukemia by subcutaneously implanting Ba/F3 T315I cells (1×10^8 cell/mL in sterile PBS), into the right flank of athymic nude male mice (HSD, 6-7 weeks old). When the tumor volume reached approximately 50 mm^3, mice were assigned randomly to either vehicle alone or OR0512 treatment groups (five mice per group). Mice were treated with either vehicle (DMSO) or OR0512 (40 mg/kg q.d.; per os for 11 consecutive days). • 2) human pancreatic adenocarcinoma model by subcutaneously implanting BxPC-3 cells (1×10^7 cell/mL in sterile PBS), into the right flank of athymic nude male mice (HSD, 6-7 weeks old). […]
(§3) Tumor volumes in mm^3 were determined three times a week with a digital caliper and calculated using the following formula: Tumor Volume (mm^3)=length (mm)×width (mm)×width (mm)×½. Body weight was measured three times a week, and mice were observed daily for monitoring signs of stress to detect possible toxicities. […] Data were analyzed with Prism 5.0b (GraphPad Software) by one-way ANOVA with Bonferroni post hoc. Tumor Growth Inibition (TGI) is calculated as the percent decrease of tumor growth at the end of the study in the OR0512 treatment group in comparison to the vehicle alone treatment group.

BxPC-3 cells = assay: Xenograft mouse model, human pancreatic adenocarcinoma; format: in vivo, mice
Procedure: as §2, §3

H1975 cells = assay: Xenograft mouse model, human NSCLC with EGFR mutations; format: in vivo, mice
Procedure: as §2, §3

HepG2 cells = assay: Xenograft mouse model, human hepatocellular carcinoma; format: in vivo, mice
Procedure: as §2, §3

pEC50 (A549): ≥ 7.00 | pEC50 (BaF3 E255K + M351T): ≥ 7.00 | pEC50 (BaF3 G250A): ≥ 7.00 | pEC50 (BaF3 G250E): ≥ 7.00 | pEC50 (BaF3 T315I): ≥ 7.00 | pEC50 (BaF3 WT): ≥ 7.00 | pEC50 (BxPC-3): ≥ 7.00 | pEC50 (H1975): 6.00 to 7.00 | pEC50 (HT29): 6.00 to 7.00 | pEC50 (HeLa): 6.00 to 7.00 | pEC50 (HepG2): ≥ 7.00 | pEC50 (HuH6 Clone 5): ≤ 6.00 | pEC50 (HuH7): ≥ 7.00 | pEC50 (MDA-MB-231): ≥ 7.00 | pEC50 (PC-3): 6.00 to 7.00
Structure (SMILES): COC(=O)c1cc2cc(NCc3cc(NC(=O)c4ccc(CN5CCN(C)CC5)c(C(F)(F)F)c4)ccc3C)cnc2[nH]1 [OR0512]
pEC50 (Caki-2): ≥ 7.00 | pEC50 (HRMEC): ≥ 7.00 | pEC50 (HUVEC): ≥ 7.00 | pEC50 (HuCCT1): 6.00 to 7.00 | Tumor Growth Inhibition - TGI (Ba/F3 T315I cells; Ba/F3 T315I xenograft, mice, 40 mg/kg q.d. per os, 11 days, versus vehicle): 37% | decrease of tumor growth (in words) (Ba/F3 T315I cells; xenografted mice, imatinib-resistant CML model expressing Bcr-Abl T315I): slight decrease of tumor growth | Tumor Growth Inhibition - TGI (BxPC-3 cells; BxPC-3 xenograft, mice, 20 mg/kg q.d. per os, 32 days, versus vehicle, **P < 0.05): 85%** | decrease of tumor growth (in words) (BxPC-3 cells; xenografted mice, human pancreatic adenocarcinoma model): significantly induced a decrease of tumor growth | Tumor Growth Inhibition - TGI (H1975 cells; H1975 xenograft, mice, 20 mg/kg q.d. per os, 22 days, versus vehicle, **P < 0.05): 73%** | decrease of tumor growth (in words) (H1975 cells; xenografted mice, human NSCLC (mutated form of EGFR) model): significantly induced a decrease of tumor growth | Tumor Growth Inhibition - TGI (HepG2 cells; HepG2 xenograft, mice, 20 mg/kg q.d. per os, 15 days, versus vehicle, **P < 0.05): 69%** | decrease of tumor growth (in words) (HepG2 cells; xenografted mice, human hepatocellular carcinoma model): significantly induced a decrease of tumor growth
